From patent US20250368628A1, “METHODS AND COMPOUNDS FOR MODULATING INHERITED GENETIC DISEASES” (Design Therapeutics, Inc., priority 2022, published 2025)
pEC50: −log10 of the molar value.

What was measured:
[1] = system: F35T cells; experiment: Foci reduction in FECD (CAG10-Cy3 FISH, foci per nucleus); format: cell-based; conditions: F35T cells, foci per nucleus, 48 h treatment; read-out: FECD EC50, 48 h
In short: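 F35T cells, 5000 per well, were treated for 48 h at 37 °C, 5% CO2 in an 8-point dose response. Cells were then fixed in 4% PFA, permeabilized in 70% ethanol and hybridized overnight at 37 °C with a CAG10-Cy3 probe in 30% formamide/2×SSC. After DAPI staining, imaging gave foci per nucleus.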

[2] = system: Myotonic Dystrophy 1 affected patient fibroblasts (Coriel GM04602; 1600 CTG repeats); experiment: DM1 foci reduction assay (EC50 assay; CAG10-Cy3 FISH, foci per nucleus); format: cell-based; conditions: Homo sapiens, Fibroblast; DM1 patient fibroblasts, foci per nucleus, 48 h treatment; read-out: DM1 EC50, 48 h
In short: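 GM04602 DM1 patient fibroblasts (1600 CTG repeats) seeded 24 h, then treated 48 h at 37 °C with an 8-point 1:3 dose series from 3 μM. Cells PFA-fixed, ethanol-permeabilized and hybridized overnight with 5 nM CAG10-Cy3 probe, DAPI counterstained. Imaged at 20×, 4 fields per well, as average foci per nucleus.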

`Cn1cc(NC(=O)c2nccn2C)cc1C(=O)NCCC(=O)Nc1cn(C)c(C(=O)Nc2cc(C(=O)NC[C@H](N)CC(=O)Nc3cn(C)c(C(=O)NCCC(=O)Nc4cc(C(=O)Nc5cn(C)c(C(=O)NCCC(=O)N6CCC(C#CC#CC7CCNCC7)CC6)n5)n(C)c4)n3)n(C)c2)n1` [Compound B-419] was tested, and the pEC50 [1] was > 7.00 and the pEC50 [2] was 6.30 to 7.00.
`CCCCn1cc(NC(=O)c2nc(NC(=O)CCNC(=O)c3cc(NC(=O)c4nccn4C)cn3C)cn2C)cc1C(=O)NC[C@H](N)CC(=O)Nc1cn(C)c(C(=O)NCCC(=O)Nc2cc(C(=O)Nc3cn(C)c(C(=O)NCCC(=O)N4CCN(C)CC4)n3)n(C)c2)n1` [Compound B-420] showed a pEC50 [1] of 6.00 to 6.30 and a pEC50 [2] of 6.30 to 7.00.
In the case of `CCCNC(=O)c1nc(NC(=O)c2cc(NC(=O)CCNC(=O)c3nc(NC(=O)C[C@@H](N)CNC(=O)c4cc(NC(=O)c5nc(NC(=O)CCNC(=O)c6cc(NC(=O)c7nccn7C)cn6C)cn5C)cn4C)cn3C)cn2C)cn1C` [Compound B-421], the pEC50 [1] was > 7.00 and the pEC50 [2] was > 7.00.
With `CN(C)CCCCNC(=O)c1nc(NC(=O)c2cc(NC(=O)CCNC(=O)c3nc(NC(=O)C[C@@H](N)CNC(=O)c4cc(NC(=O)c5nc(NC(=O)CCNC(=O)c6cc(NC(=O)c7nccn7C)cn6C)cn5C)cn4C)cn3C)cn2C)cn1C` [Compound B-422] the pEC50 [1] was < 6.00 and the pEC50 [2] was < 6.00.
In the case of `CCCCn1cc(NC(=O)c2nc(NC(=O)CCNC(=O)c3cc(NC(=O)c4nccn4C)cn3C)cn2C)cc1C(=O)NC[C@H](N)CC(=O)Nc1cn(C)c(C(=O)NCCC(=O)Nc2cc(C(=O)Nc3cn(C)c(C(=O)NCCCCN(C)C)n3)n(C)c2)n1` [Compound B-423], the pEC50 [1] was < 6.00 and the pEC50 [2] was 6.30 to 7.00.
In the case of `CN(C)CCCCNC(=O)c1nc(NC(=O)c2cc(NC(=O)CCNC(=O)c3nc(NC(=O)C[C@H](CNC(=O)c4cc(NC(=O)c5nc(NC(=O)CCNC(=O)c6cc(NC(=O)c7nccn7C)cn6C)cn5C)cn4C)NC(=O)c4ccccc4)cn3C)cn2C)cn1C` [Compound B-424], the pEC50 [1] was 6.30 to 7.00 and the pEC50 [2] was 6.30 to 7.00.
With `CCCCCCn1cc(NC(=O)c2nc(NC(=O)CCNC(=O)c3cc(NC(=O)c4nccn4C)cn3C)cn2C)cc1C(=O)NCCCC(=O)Nc1cn(C)c(C(=O)NCCC(=O)Nc2cc(C(=O)Nc3cn(C)c(C(=O)NCCC(=O)N4CCN(C)CC4)n3)n(C)c2)n1` [Compound B-425] the pEC50 [1] was > 7.00 and the pEC50 [2] was > 7.00.
In the case of `CCCCn1cc(NC(=O)c2nc(NC(=O)CCNC(=O)c3cc(NC(=O)c4nccn4C)cn3C)cn2C)cc1C(=O)NCCCC(=O)Nc1cn(C)c(C(=O)NCCC(=O)Nc2cc(C(=O)Nc3cn(C)c(C(=O)NCCC(=O)N4CCN(C)CC4)n3)n(C)c2)n1` [Compound B-426], the pEC50 [1] was 6.30 to 7.00 and the pEC50 [2] was 6.30 to 7.00.
For `CN1CCN(C(=O)CCNC(=O)c2nc(NC(=O)c3cc(NC(=O)CCNC(=O)c4nc(NC(=O)CCCNC(=O)c5cc(NC(=O)c6nc(NC(=O)CCNC(=O)c7cc(NC(=O)c8nccn8C)cn7C)cn6C)cn5CCCCO)cn4C)cn3C)cn2C)CC1` [Compound B-427], the pEC50 [1] was > 7.00 and the pEC50 [2] was 6.30 to 7.00.
`CN(C)CCCCn1cc(NC(=O)c2nc(NC(=O)CCNC(=O)c3cc(NC(=O)c4nccn4C)cn3C)cn2C)cc1C(=O)NCCCC(=O)Nc1cn(C)c(C(=O)NCCC(=O)Nc2cc(C(=O)Nc3cn(C)c(C(=O)NCCC(=O)N4CCCCC4)n3)n(C)c2)n1` [Compound B-428] was tested, and the pEC50 [1] was > 7.00 and the pEC50 [2] was > 7.00.
`CCCn1cc(NC(=O)c2nc(NC(=O)CCNC(=O)c3cc(NC(=O)c4nccn4C)cn3C)cn2C)cc1C(=O)NCCCC(=O)Nc1cn(C)c(C(=O)NCCC(=O)Nc2cc(C(=O)Nc3cn(C)c(C(=O)NCCC(=O)N4CCN(C)CC4)n3)n(C)c2)n1` [Compound B-429] was tested, and the pEC50 [1] was > 7.00 and the pEC50 [2] was > 7.00.
With `CN(C)CCCn1cc(NC(=O)c2nc(NC(=O)CCNC(=O)c3cc(NC(=O)c4nccn4C)cn3C)cn2C)cc1C(=O)NCCCC(=O)Nc1cn(C)c(C(=O)NCCC(=O)Nc2cc(C(=O)Nc3cn(C)c(C(=O)NCCC(=O)N4CCCCC4)n3)n(C)c2)n1` [Compound B-430] the pEC50 [1] was > 7.00 and the pEC50 [2] was > 7.00.
For `CCCNC(=O)CCNC(=O)c1nc(NC(=O)c2cc(NC(=O)CCNC(=O)c3nc(NC(=O)CCCNC(=O)c4cc(NC(=O)c5nc(NC(=O)CCNC(=O)c6cc(NC(=O)c7nccn7C)cn6C)cn5C)cn4CCCO)cn3C)cn2C)cn1C` [Compound B-431], the pEC50 [1] was > 7.00 and the pEC50 [2] was > 7.00.
In the case of `CCCNC(=O)CCNC(=O)c1nc(NC(=O)c2cc(NC(=O)CCNC(=O)c3nc(NC(=O)CCCNC(=O)c4cc(NC(=O)c5nc(NC(=O)CCNC(=O)c6cc(NC(=O)c7nccn7C)cn6C)cn5C)cn4CCCOC(=O)c4ccccc4)cn3C)cn2C)cn1C` [Compound B-432], the pEC50 [1] was > 7.00 and the pEC50 [2] was > 7.00.
For `CCCCn1cc(NC(=O)c2nc(NC(=O)CCNC(=O)c3cc(NC(=O)c4nccn4C)cn3C)cn2C)cc1C(=O)NCCCC(=O)Nc1cn(C)c(C(=O)NCCC(=O)Nc2cc(C(=O)Nc3cn(C)c(C(=O)NCCC(=O)N4CCCCC4)n3)n(C)c2)n1` [Compound B-433], the pEC50 [1] was > 7.00 and the pEC50 [2] was > 7.00.
Work on `CCCNC(=O)c1nc(NC(=O)c2cc(NC(=O)CCNC(=O)c3nc(NC(=O)CC4(CNC(=O)c5cc(NC(=O)c6nc(NC(=O)CCNC(=O)c7cc(NC(=O)c8nccn8C)cn7C)cn6C)cn5C)CNC4)cn3C)cn2C)cn1C` [Compound B-439] yielded a pEC50 [1] of 6.30 to 7.00 and a pEC50 [2] of 6.30 to 7.00.
